The values below come from patent publication US9783521B2, “PDE10 inhibitors and related compositions and methods” (Omeros Corporation, priority 2008, dated 2017).

A word on the IC50: it is the point on the concentration scale where inhibition reaches its midpoint.

The target in the first experiment is T1, recombinant human PDE 10A1 (Homo sapiens, UniProt Q9Y233).
T1 construct: made in house; host or cells: Sf9 insect cells, baculoviral system
T1 sequence (Q9Y233 1-779 isoform Q9Y233-1): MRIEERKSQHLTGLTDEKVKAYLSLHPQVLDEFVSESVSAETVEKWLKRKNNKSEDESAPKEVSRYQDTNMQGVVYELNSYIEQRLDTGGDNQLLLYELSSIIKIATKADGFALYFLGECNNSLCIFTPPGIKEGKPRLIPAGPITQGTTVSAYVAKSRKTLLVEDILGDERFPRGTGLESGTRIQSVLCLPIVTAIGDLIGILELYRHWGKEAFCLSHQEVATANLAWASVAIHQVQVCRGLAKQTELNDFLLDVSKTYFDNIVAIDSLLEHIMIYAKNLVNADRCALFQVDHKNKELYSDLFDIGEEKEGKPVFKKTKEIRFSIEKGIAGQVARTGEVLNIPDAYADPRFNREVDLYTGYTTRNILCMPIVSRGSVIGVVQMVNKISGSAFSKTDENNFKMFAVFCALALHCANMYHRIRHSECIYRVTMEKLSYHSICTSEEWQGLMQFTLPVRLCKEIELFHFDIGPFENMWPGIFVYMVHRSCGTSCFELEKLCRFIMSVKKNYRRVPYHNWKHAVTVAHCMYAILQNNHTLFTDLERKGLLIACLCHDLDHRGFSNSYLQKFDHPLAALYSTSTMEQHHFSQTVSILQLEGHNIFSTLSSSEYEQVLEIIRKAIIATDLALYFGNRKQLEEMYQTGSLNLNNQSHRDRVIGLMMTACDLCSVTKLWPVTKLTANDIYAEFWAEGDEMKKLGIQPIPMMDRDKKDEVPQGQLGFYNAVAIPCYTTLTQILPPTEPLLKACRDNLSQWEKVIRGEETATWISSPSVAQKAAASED
Briefly: PDE10 biochemical assay (two-step Thompson and Appleman method or SPA).
Settings: not given
As to the method: After the appropriate incubation time, the reaction is terminated by heating. The mixture is then subjected to treatment with snake venom phosphatase. […] IC50 values can be calculated by performing the experiment at several concentrations using standard graphical means. A detailed description of the actual technique used for IC50 assays as set forth in following Examples.
The phosphodiesterase (PDE) assay was performed using recombinant human PDE 1A3, 2A3, 3 catalytic region, 4 catalytic region, 5 catalytic region, 7A, 8A, 9A2, 10A1 and 11A1 enzymes expressed in a baculoviral system using Sf9 cells. PDE activity was measured using a modification of the two-step method of Thompson and Appleman described above which was adapted for 96 well plate format. […] Reactions were initiated with enzyme and incubated with (^3H)-substrate and substance for 20 minutes at 30° C. The reaction was terminated by denaturing the enzyme (heating the reaction to 70° C. for 2 minutes). The reaction was then cooled at 4° C. for 10 minutes before the addition of snake venom (Crotalus atrox, 0.2 mg/ml) for 10 minutes at 30° C., thus allowing non-specific hydrolysis of the tritiated substrate. Separation of the remaining unhydrolysed cyclic nucleotide was achieved by a batch binding of the mixture to activated Dowex (200 μl) anion exchange resin. The anion exchange resin bound the charged nucleotides, leaving only hydrolysed (^3H) substrate in the soluble fraction. The soluble fraction (50 μl) was then added to microscint-20 (200 μl) and counted on a Top Count Plate reader. Radioactivity units were plotted against inhibitor concentration and IC50 values obtained using Graph Pad Prism software.
Alternatively, phosphodiesterase activity was measured by scintillation proximity assay (SPA) with [^3H]-cGMP as substrate. Purified PDE10 was diluted and stored in 25 mM Tris-Cl (pH 8.0)/100 mM NaCl/0.05% Tween 20/50% glycerol/3 mM DTT. Assays contained (final concentrations): 50 mM Tris-Cl (pH 7.5)/8.3 mM MgCl2/1.7 mM EGTA/0.5 mg/ml BSA/5% DMSO and 2 ng PDE10 in a final volume of 0.1 mL. Inhibition was evaluated at 8 concentrations in duplicate. Reactions were initiated by addition of enzyme and were terminated after 20 minutes at 30° C. by the addition of 50 μl of SPA beads containing Zn^++. The mixture was shaken, allowed to settle for 3 hours, and counted in a Wallac plate counter. Results (net cpm) were fitted to a four parameter logistic model using Excel Solver®.
On to `CCOc1cc(/C=N/NC(=O)C(OC)c2ccc(Cl)cc2)ccc1OC` (stereo not drawn) [Compound 12-7], for which the IC50 was no more than 1000 nM. As to `COc1ccc(/C=N/N(C)C(=O)C(OC)c2ccccc2)cc1OC` (stereo not drawn) [Compound 12-70, (E)-N′-(3,4-Dimethoxybenzylidene)-2-methoxy-N-methyl-2-phenylacetohydrazide], the IC50 was no more than 1000 nM.

The same experiment, now with this note: PDE10 inhibition; read-out: IC50.
Take `COc1cc(/C=N/NC(=O)C(OC)c2ccc3ccccc3c2)cc(OC)c1OC` (stereo not drawn) [Compound 1-1, (E)-2-Methoxy-2-(naphthalen-2-yl)-N′-(3,4,5-trimethoxybenzylidene)acetohydrazide]: the IC50 is no more than 1000 nM. The same measure, in the same setting: the value for `COc1cc(/C=N/NC(=O)C(c2ccccc2)c2ccccc2)cc(OC)c1OC` [Compound 3-1, (E)-2,2-Diphenyl-N′-(3,4,5-trimethoxybenzylidene)acetohydrazide] was no more than 1000 nM; that for `COc1ccc(/C=N/NC(=O)C(SC)c2ccccc2)cc1OC` (stereo not drawn) [Compound 4-1, (E)-N′-(3,4-Dimethoxybenzylidene)-2-(methylthio)-2-phenylacetohydrazide] was no more than 1000 nM. On the same count and under the same terms, then `COc1cc(/C=N/N=C(\OC(=O)C(C)(C)C)C(OC)c2cccc3ccccc23)cc(OC)c1OC` (stereo not drawn) [Compound 5-1, (1Z, N′E)-2-Methoxy-2-(naphthalen-1-yl)-N′-(3,4,5-trimethoxybenzylidene)acetohydrazonic pivalic anhydride], with no more than 1000 nM. Consider `COc1cc(/C=N/NC(=O)C(OC)c2cccc3ncccc23)cc(OC)c1OC` (stereo not drawn) [Compound 6-1, (E)-2-methoxy-2-(quinolin-5-yl)-N′-(3,4,5-trimethoxybenzylidene)acetohydrazide], for which the IC50 was no more than 1000 nM. On the same count and under the same terms, then `COc1cc(/C=N/NC(=O)C(OC)c2ccc(N(C)C)cc2)cc(OC)c1OC` (stereo not drawn) [Compound 7-1, (E)-2-(4-(Dimethylamino)phenyl)-2-methoxy-N′-(3,4,5-trimethoxybenzylidene)acetohydrazide], with no more than 1000 nM; and `COc1cc(/C=N/NC(=O)C(OC)c2cc3ccccc3s2)cc(OC)c1OC` (stereo not drawn) [Compound 8-1, (E)-2-(Benzo[b]thiophen-2-yl)-2-methoxy-N′-(3,4,5-trimethoxybenzylidene)acetohydrazide], with no more than 1000 nM; and `COc1ccc(/C=N/NC(=O)C(c2ccccc2)C(C)C)cc1OC` (stereo not drawn) [Compound 9-1, (E)-N′-(3,4-Dimethoxybenzylidene)-3-methyl-2-phenylbutanehydrazide], with no more than 1000 nM. As for `COc1cc(/C=N/N(CC(F)(F)F)C(=O)C(OC)c2ccc(-n3cccn3)cc2)cc(OC)c1Br` (stereo not drawn) [Compound 11-1, (E)-2-(4-(1H-pyrazol-1-yl)phenyl)-N′-(4-bromo-3,5-dimethoxybenzylidene)-2-methoxy-N-(2,2,2-trifluoroethyl)acetohydrazide], the IC50 was no more than 1000 nM.

For the compound `COc1cc(/C=N/NC(=O)C(OC)c2ccc(F)cc2)cc(OC)c1Br` (stereo not drawn) [Compound 12-1], the 50% inhibitory concentration (IC50) is no more than 1000 nM. With `CCOc1cc(/C=N/NC(=O)C(OC)c2ccc(Cl)cc2)cc(Br)c1OC` (stereo not drawn) [Compound 12-2], the half-inhibitory concentration (IC50) was no more than 1000 nM. The same measure, in the same setting: the value for `COc1cc(/C=N/NC(=O)C(OC)c2ccc(F)cc2)cc(Br)c1OC` (stereo not drawn) [Compound 12-3] was no more than 1000 nM. With `COc1cc(/C=N/NC(=O)C(OC)c2ccc(Cl)cc2)cc(Br)c1OC` (stereo not drawn) [Compound 12-4], the IC50 is no more than 1000 nM.

With `CCOc1cc(/C=N/NC(=O)C(OC)c2ccc(Cl)cc2)cc(Cl)c1OC` (stereo not drawn) [Compound 12-5], the half-maximal inhibitory concentration (IC50) was no more than 1000 nM. Take `COc1cc(/C=N/NC(=O)C(OC)c2ccc(Cl)cc2)cc(Cl)c1OC` (stereo not drawn) [Compound 12-6]: the IC50 is no more than 1000 nM. Consider `COc1cc(/C=N/NC(=O)C(OC)c2ccc(Cl)cc2)ccc1C` (stereo not drawn) [Compound 12-8], for which the IC50 was no more than 1000 nM.

As for `COc1ccc(/C=N/NC(=O)C(OC)c2ccc(Cl)cc2)cc1OC` (stereo not drawn) [Compound 12-10], the half-maximal inhibitory concentration (IC50) was no more than 1000 nM.

Consider `COc1cc(/C=N/NC(=O)C(OC)c2ccc(Cl)cc2)cc(OC)c1Br` (stereo not drawn) [Compound 12-12], for which the IC50 was no more than 1000 nM. Regarding `COc1cc(/C=N/NC(=O)C(OC)c2cccc3ccccc23)cc(OC)c1OC` (stereo not drawn) [Compound 12-13], the IC50 is no more than 1000 nM. As for `COc1cc(/C=N/NC(=O)C(OC)c2ccc(Cl)cc2)cc(C#N)c1OC` (stereo not drawn) [Compound 12-14], the 50% inhibitory concentration (IC50) is no more than 1000 nM. Same read-out and setting: then `COc1cc(/C=N/NC(=O)C(OC)c2ccc(Cl)cc2)cc(OC)c1OC` (stereo not drawn) [Compound 12-15], with no more than 1000 nM; and `COc1ccc(/C=N/NC(=O)C(OC)c2ccc3ccccc3c2)cc1OC(F)F` (stereo not drawn) [Compound 12-16], with no more than 1000 nM; and `COc1cc(/C=N/NC(=O)C(OC)c2ccccc2)cc(OC)c1OC` (stereo not drawn) [Compound 12-17], with no more than 1000 nM. On the same count and under the same terms, the value for `COc1ccc(/C=N/NC(=O)C(OC)c2ccc3ccccc3c2)cc1OC1CCCC1` (stereo not drawn) [Compound 12-18] was no more than 1000 nM; that for `COc1ccc(C(OC)C(=O)N/N=C/c2ccc(OC)c(OC)c2)cc1` (stereo not drawn) [Compound 12-19] was no more than 1000 nM. `COc1cc(/C=N/NC(=O)C(OC)c2ccccc2)ccc1C` (stereo not drawn) [Compound 12-20]: the IC50 is no more than 1000 nM. Still for that read-out and setting: then `COc1cc(/C=N/NC(=O)C(OC)c2ccc(Cl)cc2)ccc1C#N` (stereo not drawn) [Compound 12-22], with no more than 1000 nM; and `COc1ccc(/C=N/NC(=O)C(OC)c2ccc3ccccc3c2)cc1OC` (stereo not drawn) [Compound 12-23], with no more than 1000 nM. For `COc1cc(/C=N/NC(=O)C(OC)c2ccccc2)cc(OC)c1O` (stereo not drawn) [Compound 12-24], the IC50 is no more than 1000 nM. For `COc1cc(/C=N/NC(=O)C(OC)c2ccccc2)cc(OC)c1` (stereo not drawn) [Compound 12-25], the IC50 is no more than 1000 nM. As for `CCOc1ccc(/C=N/NC(=O)C(OC)c2ccccc2)cc1OCC` (stereo not drawn) [Compound 12-26], the half-maximal inhibitory concentration (IC50) was no more than 1000 nM. With `COc1cc(/C=N/NC(=O)C(Oc2ccccc2)c2ccccc2)cc(OC)c1OC` (stereo not drawn) [Compound 12-41], the IC50 was no more than 1000 nM.

With `COc1cc(/C=N/NC(=O)C(OC)c2cc3ccccc3s2)cc(Cl)c1OC` (stereo not drawn) [Compound 12-42], the half-inhibitory concentration (IC50) was no more than 1000 nM. On the same count and under the same terms, then `COCCOC(C(=O)N/N=C/c1cc(OC)c(Br)c(OC)c1)c1ccc2ccccc2c1` (stereo not drawn) [Compound 12-43], with no more than 1000 nM; and `COCCOC(C(=O)N/N=C/c1cc(OC)c(OC)c(OC)c1)c1ccc2ccccc2c1` (stereo not drawn) [Compound 12-45], with no more than 1000 nM. On to `COCCOC(C(=O)N/N=C/c1cc(Br)c(OC)c(OC)c1)c1ccc2ccccc2c1` (stereo not drawn) [Compound 12-48], for which the half-maximal inhibitory concentration (IC50) was no more than 1000 nM. In the case of `COc1cc(/C=N/NC(=O)C(OC)c2ccnc3ccccc23)cc(OC)c1OC` (stereo not drawn) [Compound 12-56], the half-maximal inhibitory concentration (IC50) is no more than 1000 nM.

`COc1cc(/C=N/NC(=O)C(OC)c2ccnc3ccccc23)cc(Br)c1OC` (stereo not drawn) [Compound 12-58]: the IC50 was no more than 1000 nM. As for `CCOC(C(=O)N/N=C/c1cc(OC)c(OC)c(OC)c1)c1cccc2ncccc12` (stereo not drawn) [Compound 12-59], the half-inhibitory concentration (IC50) was no more than 1000 nM. Same read-out and setting: then `COc1cc(/C=N/NC(=O)C(OC)c2cnc3ccccc3c2)cc(OC)c1OC` (stereo not drawn) [Compound 12-61], with no more than 1000 nM. The same measure, in the same setting: the value for `COc1cc(/C(C)=N/NC(=O)C(OC)c2ccccc2)cc(OC)c1OC` (stereo not drawn) [Compound 12-69] was no more than 1000 nM. Same read-out and setting: the value for `CCC(C(=O)N/N=C/c1ccc(OC)c(OC)c1)c1ccccc1` (stereo not drawn) [Compound 12-71] was no more than 1000 nM; that for `COc1cc(Cl)c(/C=N/NC(=O)C(OC)c2ccc3c(c2)OCCO3)cc1OC` (stereo not drawn) [Compound 12-83] was no more than 1000 nM; that for `CCOC(C(=O)N/N=C/c1cc(OC)c(Br)c(OC)c1)c1ccc2c(c1)OCCN2C` (stereo not drawn) [Compound 12-84] was no more than 1000 nM. As to `CCOC(C(=O)N/N=C/c1cc(Cl)c(OC)c(OC)c1)c1ccc2c(c1)OCCN2C` (stereo not drawn) [Compound 12-85], the IC50 was no more than 1000 nM. Same read-out and setting: then `CCOC(C(=O)N/N=C/c1cc(Br)c(OC)c(OC)c1)c1ccc2c(c1)OCCN2C` (stereo not drawn) [Compound 12-86], with no more than 1000 nM.

As for `CCOC(C(=O)N/N=C/c1cc(OC)c(Br)c(OC)c1)c1ccc2c(c1)OCCO2` (stereo not drawn) [Compound 12-87], the IC50 was no more than 1000 nM.

`CCOC(C(=O)N/N=C/c1cc(OC)c(OC)c(OC)c1)c1ccc2c(c1)OCCO2` (stereo not drawn) [Compound 12-88]: the IC50 was no more than 1000 nM. The same measure, in the same setting: the value for `COc1cc(/C=N/NC(=O)Cc2ccccc2)cc(OC)c1OC` [Compound 12-89] was no more than 1000 nM; that for `COc1ccc(/C=N/NC(=O)Cc2ccc(OC)c(OC)c2)cc1OC` [Compound 12-90] was no more than 1000 nM; that for `COc1cc(/C=N/NC(=O)C(OCCN(C)C)c2ccc3c(c2)OCO3)cc(OC)c1Br` (stereo not drawn) [Compound 12-109] was no more than 1000 nM. Take `COc1cc(/C=N/NC(=O)C(OC)c2ccc3c(c2)OCO3)cc(Br)c1OC` (stereo not drawn) [Compound 12-116]: the IC50 was no more than 1000 nM.
